The values below come from US20160050959A1, “TABLET COMPRISING FRUCTOSE” (NATURALIA INGREDIENTS S.R.L., priority 2013, published 2016).

Data set [1] is described as follows: Colour change of tablets after direct compression. The data set is classed as physicochemical. As to conditions: 98% fructose + 2% leucine. How it is done: The tablets were prepared by direct compression, after 15 min. mixing of the ingredients, using a Korsch XL 400 compression machine with force of 12 kN and rotation speed of 20,000 tablets/h.
Data set [2] in a line: Compressibility (compression force versus tablet hardness). The data set is classed as physicochemical. Conditions: 98% fructose + 2% leucine, direct compression 12 kN. On the procedure: Compressibility: the compressibility was evaluated by measuring the compression force of the compression machine used and the hardness of the tablet. With the same hardness, the formulation that requires less compression force is more compressible.

The conditions of data set [3]: studies on mice followed by clinical trials on humans; cited from earlier work.
For data set [4] the following is noted: at 20° C.; cited from earlier work.
Data set [5] in a line: Friability, evaluation by the operator. As to conditions: 98% fructose + 2% leucine. It counts as physicochemical. How it is done: Friability: friability is measured with the friabilimeter and relative method described in Pharmacopoeia Europea (note: in our specific case, an evaluation by the operator was performed, not a measurement).
A short description of data set [6]: Tablet stability tests / stability to humidity. It counts as physicochemical. As to conditions: tablets of 98% fructose + 2% leucine, grape versus commercial fructose.
Data set [7] can be described thus: Cracking off, operator observation. The data set is classed as physicochemical. Conditions: 98% fructose + 2% leucine; operator evaluation. How it is done:
Cracking off: the cracking off was evaluated directly by the machine operator by observing the tablets both during mould ejection and during the friability test. The tablets must never crack into two mirror-image parts with crack horizontal to the edge, or have visible cracks on the same edge.

[8] abbreviates: listed as crystalline grape fructose.

Take `O=C(CO)[C@@H](O)[C@H](O)[C@H](O)CO` [commercial fructose, fructose]: the “colour change of tablet” value in data set [1] is “tendency to form yellow patches”. In data set [2], the Compressibility result is “very poor”.
Regarding `O=C(CO)[C@@H](O)[C@H](O)[C@H](O)CO` [fructose extracted from fruit, fructose], the insulin secretion entry in data set [3] was “very low”.
On to `O=C(CO)[C@@H](O)[C@H](O)[C@H](O)CO` [fructose], for which the solubility in water entry in data set [4] is given as “approx. 80%”.
Consider `O=C(CO)[C@@H](O)[C@H](O)[C@H](O)CO` [grape fructose, fructose], for which, in data set [5], the Friability result was “is not friable”. Besides, the stability entry is given as “more stable” in data set [6] and “more resistant to the stability tests” in data set [6] (setting [8]). Besides, the “colour change of tablet” value was “did not change colour” in data set [1] and “does not change colour” in data set [1] (setting [8]). Further, the Compressibility entry was “compressed better” in data set [2] and “compresses well” in data set [2] (setting [8]). Also, in data set [7], the Cracking off entry is reported as “does not tend to cracking off”.
